Measurements from US8580814B2, “Methods of using (+)-1,4-dihydro-7-[(3S,4S)-3-methoxy-4-(methylamino)-1-pyrrolidinyl]-4- oxo-1-(2-thiazolyl)-1,8-naphthyridine-3-carboxylic acid for treatment of cancer” (priority 2006, dated 2013).
In brackets after ≈: the same amount, converted by molar mass.

Legend:
[1] = tested on: HL-60 (promyelocytic leukemia); experiment: MTT cell viability assay, leukemia cells; assay type: cell-based; conditions: Homo sapiens; HL-60, MTT after 72 hours
Description: (§1) The following cell lines were used in this assay: HL-60 (promyelocytic leukemia); Jurkat (T cell leukemia); CCRF-CEM (lymphoblastic leukemia); CEM/C2 (camptothecan resistant derivative of CCRF-CEM). Cells were seeded in 96 wells plates at 3000 cells per well and incubated for 16 hours. […] Titrations were diluted 1:100 in media to achieve final compound concentrations. The 96 well plates were aspirated and compound dilutions in media were added ([…]). MTT analysis was carried out after 72 hours of incubation at 37° C. Briefly, […] of MTT solution was added to each well. Cells were incubated at 37° C. for 1-2 hours. […] Plates were read on a spectromax machine with an absorbance measurement at […]. IC50's were calculated (data provided in Table 13) using regression analysis within GraphPad Prism.

[2] = tested on: CCRF-CEM (lymphoblastic leukemia); experiment: MTT cell viability assay, leukemia cells; assay type: cell-based; conditions: Homo sapiens, MTT after 72 hours
Description: as §1

Jurkat (T cell leukemia) = experiment: MTT cell viability assay, leukemia cells; assay type: cell-based; conditions: Homo sapiens, MTT after 72 hours
Description: as §1

[3] = tested on: CEM/C2 (camptothecan resistant derivative of CCRF-CEM); experiment: MTT cell viability assay, leukemia cells; assay type: cell-based; conditions: Homo sapiens; CEM/C2, MTT after 72 hours
Description: as §1

[4] = tested on: HCT-116 cells with 6 fold lower ATR levels; experiment: MTT assay, sensitization (ATRFLOX); assay type: cell-based; conditions: compound 72 hours
Description: Cells were then incubated with 5% MTT for 1-2 hours and lysed. MTT was colorimetrically read at 570 nm and EC50's were determined using linear regression analysis.
Sensitization was carried out with various chemical treatments.

HCT-116 cells = experiment: Repair of DNA damage (gH2AX foci) in the absence of ATM and ATR; assay type: cell-based; conditions: for 6 h with 2 mM caffeine, washout, 16 hours recovery
Description: Compound was then removed and cells were allowed to recover for 16 hours. Cells were analyzed for gH2AX foci before and after drug washout.

p73 null cells = experiment: SNS-595 sensitivity in p73 null vs p73 containing cells; assay type: cell-based; conditions: p73 null cells as compared to p73 containing cells
clinical = conditions: human, in vivo; for AUC(0-inf) / half-life: both sexes
Description: SNS-595 was administered to patients with advanced or refractory acute leukemias as a slow IV push. Diagnoses included AML (19 patients) and ALL (2 patients). All patients had disease refractory to or relapsed from prior therapy (median 3 prior regimens (range 1-6)).
A total of 21 patients (9 female and 12 male; median age=64 yrs, range 21-80) were treated in five cohorts using two schedules. In the first schedule (A), a weekly dose of SNS-595 was administered for three weeks followed by 7 days off (qwk×3). In the second schedule (B), a dose of SNS-595 was administered twice a week for two weeks (biwk×2). The cycle duration, including days off, was 28 days for both schedules. […] Additional cycles were permitted if patients achieved stable disease or better. The starting dose was 18 mg/m^2 on schedule A and 9 mg/m^2 on schedule B, and dosage was escalated by cohort. Cohorts of 3-6 patients were accrued to doses using a modified Fibonacci sequence.
Pharmacokinetic analyses for SNS-595 were performed on plasma samples collected during cycle 1.
Plasma SNS-595 concentrations were determined using a validated LC-MS/MS assay. Plasma exposures at the first two dose levels for each schedule increased linearly, resulting in AUCs of 4.3-17.8 ughr/mL for 9-27 mg/m^2 doses. […] Six patients distributed across all dosing groups shown in Table 15 experienced greater than 50% reductions in peripheral blasts following cycle 1.

[5] = tested on: ATRFLOX (HCT-116 cells with 6 fold lower ATR levels); experiment: Timing of apoptosis (caspase-3 activation); assay type: cell-based; conditions: Cell Line ATRFLOX; dosed at 30 fold above the EC50 for cytotoxicity
[6] = parameters: species or system female CD-1 mice; conditions: mouse, in vivo
Description: Female CD-1 mice were administered 5, 10, 15, or 20 mg/kg SNS-595 intravenously on Day 0 and Day 4. Blood was drawn on days 6, 8, and 12 post initial injection for hematological analysis. Femurs were extracted on day 6 fixed in Streck and H&E stained prior to bone marrow cellularity analysis. […] At 20 mg/kg, cellularity was reduced to 7.5%, while circulating neutrophils were reduced from a pre-dose level of […] to a nadir of 51±24 cells/mL blood on day 8.

[7] = tested on: SKOV3 ovarian cancer cell line with or without p53 expression; experiment: Combination studies, MTT assay, Combination Index; assay type: cell-based; conditions: SNS-595 dosed simultaneously with a selection of DNA damaging agents and antimetabolites
Description: (§2) Cell lines and Cell Culture: HCT116 and NCI-H460 cell lines were obtained from ATCC. SKOV3(p53−/−) and SKOV3(p53+/+) were obtained from the lab of Dr. George Stark of the Lerner Institute of the Cleveland Clinic. All cell lines were cultured in RPMI media supplemented with 10% FBS 1% Sodium Bicarbonate solution and 1% Antibiotic Solution (Cellgro).
(§3) MTT assay: Cells were plated at 4000 cells per well (except SKOV3 (p53−/−) which were plated at 8000 cells per well) in a 96 well plate, incubated for 24 hours and then treated with compound. Compound treatment lasted 72 hours. Cells were then incubated with 5% MTT for 1-2 hours, and lysed. MTT was colorimetrically read at 570 nm. The fraction of dead cells was determined by the following formula: Fraction of Dead cells=1−[Abs of sample well−Avg(Abs of no cell control)]/[Avg(Abs of DMSO only control)−Avg(abs of no cell control)]
(§4) Statistical Analysis: The data (Fraction of Dead cells) was analyzed using Calculsyn.V2 (Biosoft) and is herein represented as the value of the Combination Index at Fraction affected (Fa)=0.5. All data is shown with error bars indicating the 95% confidence intervals of the mean value.
(§5) A combination is said to be additive if it yields a Combination Index of 0.85-1.2. […]

[8] = tested on: H460 lung cancer cell line; experiment: Combination studies, MTT assay, Combination Index; assay type: cell-based; conditions: SNS-595 dosed simultaneously with various cytotoxics, H460, Fa=0.5
Description: as §2, §3, §4, §5

CN[C@H]1CN(c2ccc3c(=O)c(C(=O)O)cn(-c4nccs4)c3n2)C[C@@H]1OC [SNS-595, (+)-1,4-dihydro-7-[(3S,4S)-3-methoxy-4-(methylamino)-1-pyrrolidinyl]-4-oxo-1-(2-thiazolyl)-1,8-naphthyridine-3-carboxylic acid]
IC50 [1]: 0.053 µg/mL (≈ 0.132 µM) | IC50 [2]: 0.018 µg/mL (≈ 0.0448 µM) | IC50 (Jurkat (T cell leukemia)): 0.023 µg/mL (≈ 0.0573 µM) | IC50 [3]: 0.01 µg/mL (≈ 0.0249 µM) | Sensitization, fold decrease in the EC50 for cytotoxicity (MTT): ATRFLOX [4]: 1 fold | repair of induced DNA damage (gH2AX foci) in the absence of ATM and ATR (HCT-116 cells): readily repaired | decrease in SNS-595 sensitivity (p73 null cells): more than 11 fold | AUC(0-inf) (clinical; 9 mg/m2): 4300 ± 1300 ng·h/mL | AUC(0-inf) (clinical; 13.5 mg/m2): 5900 ± 2900 ng·h/mL | half-life (clinical; 13.5 mg/m2): 21 ± 7 h | AUC(0-inf) (clinical; 18 mg/m2): 8000 ± 1400 ng·h/mL | AUC(0-inf) (clinical; 27 mg/m2): 17800 ± 5000 ng·h/mL | half-life (clinical; 27 mg/m2): 22 ± 10 h | terminal half-lives, averaged (clinical; both): 23 h | T ½ (clinical; both, 9 mg/m2): 24 ± 5 h | Vssobs (clinical; both, 9 mg/m2): 65 ± 2 L/m^2 | Vssobs (clinical; both, 13.5 mg/m2): 61 ± 6 L/m^2 | T ½ (clinical; both, 18 mg/m2): 24 ± 4 h | Vssobs (clinical; both, 18 mg/m2): 72 ± 21 L/m^2 | Vssobs (clinical; both, 27 mg/m2): 47 ± 21 L/m^2 | CL, averaged (clinical): ~2 L/hr/m^2 | Vss, averaged (clinical): 58 L/m^2 | Timing of apoptosis: fraction of cell cycle to achieve 50% maximal caspase-3 activation [5]: 0.35 | peripheral neutrophils [6]: significant decrease | platelet response [6]: minor platelet response | Total WBCs ([6]; iv): reached a nadir on day 8, but returned to normal levels | change in the combination index between SKOV3 with or without p53 expression [7]: no significant change | combination indices [8]: significantly synergistic or at least additive
